Measured values published in patent US11174268B2, “Benzenesulfonamide compouds and their use as therapeutic agents” (Xenon Pharmaceuticals Inc., priority 2016, dated 2021).
Structures can show the parent of a compound that is named as a salt. Where two headings read alike, the source gives them in different places.

How the values were obtained:
[1] = target: NaV1.6 (Homo sapiens (Human), UniProt Q9UQD0); assay: Sodium Influx Assay (Flux), NaV1.6; format: cell-based; conditions: Trex HEK293 cells, ANG2 dye, inactivated state;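 note: Tetracycline-induced cells, compounds applied for one hour at room temperature with modulators holding channels open, IC50 from percent inhibition of sodium influx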
[2] = target: NaV1.1 (Homo sapiens (Human), UniProt P35498); assay: Sodium Influx Assay (Flux), NaV1.1; format: cell-based; conditions: Trex HEK293 cells, ANG2 dye, inactivated state;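 note: channels co-expressed with human β1 subunit and held open by modulators, cells exposed to compounds for one hour at room temperature, IC50 from percent inhibition of influx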
[3] = target: NaV1.5 (Homo sapiens (Human), UniProt Q14524); assay: Sodium Influx Assay (Flux), NaV1.5
Chain of NaV1.5 (Q14524 other isoform, or with tags, fused parts or gaps): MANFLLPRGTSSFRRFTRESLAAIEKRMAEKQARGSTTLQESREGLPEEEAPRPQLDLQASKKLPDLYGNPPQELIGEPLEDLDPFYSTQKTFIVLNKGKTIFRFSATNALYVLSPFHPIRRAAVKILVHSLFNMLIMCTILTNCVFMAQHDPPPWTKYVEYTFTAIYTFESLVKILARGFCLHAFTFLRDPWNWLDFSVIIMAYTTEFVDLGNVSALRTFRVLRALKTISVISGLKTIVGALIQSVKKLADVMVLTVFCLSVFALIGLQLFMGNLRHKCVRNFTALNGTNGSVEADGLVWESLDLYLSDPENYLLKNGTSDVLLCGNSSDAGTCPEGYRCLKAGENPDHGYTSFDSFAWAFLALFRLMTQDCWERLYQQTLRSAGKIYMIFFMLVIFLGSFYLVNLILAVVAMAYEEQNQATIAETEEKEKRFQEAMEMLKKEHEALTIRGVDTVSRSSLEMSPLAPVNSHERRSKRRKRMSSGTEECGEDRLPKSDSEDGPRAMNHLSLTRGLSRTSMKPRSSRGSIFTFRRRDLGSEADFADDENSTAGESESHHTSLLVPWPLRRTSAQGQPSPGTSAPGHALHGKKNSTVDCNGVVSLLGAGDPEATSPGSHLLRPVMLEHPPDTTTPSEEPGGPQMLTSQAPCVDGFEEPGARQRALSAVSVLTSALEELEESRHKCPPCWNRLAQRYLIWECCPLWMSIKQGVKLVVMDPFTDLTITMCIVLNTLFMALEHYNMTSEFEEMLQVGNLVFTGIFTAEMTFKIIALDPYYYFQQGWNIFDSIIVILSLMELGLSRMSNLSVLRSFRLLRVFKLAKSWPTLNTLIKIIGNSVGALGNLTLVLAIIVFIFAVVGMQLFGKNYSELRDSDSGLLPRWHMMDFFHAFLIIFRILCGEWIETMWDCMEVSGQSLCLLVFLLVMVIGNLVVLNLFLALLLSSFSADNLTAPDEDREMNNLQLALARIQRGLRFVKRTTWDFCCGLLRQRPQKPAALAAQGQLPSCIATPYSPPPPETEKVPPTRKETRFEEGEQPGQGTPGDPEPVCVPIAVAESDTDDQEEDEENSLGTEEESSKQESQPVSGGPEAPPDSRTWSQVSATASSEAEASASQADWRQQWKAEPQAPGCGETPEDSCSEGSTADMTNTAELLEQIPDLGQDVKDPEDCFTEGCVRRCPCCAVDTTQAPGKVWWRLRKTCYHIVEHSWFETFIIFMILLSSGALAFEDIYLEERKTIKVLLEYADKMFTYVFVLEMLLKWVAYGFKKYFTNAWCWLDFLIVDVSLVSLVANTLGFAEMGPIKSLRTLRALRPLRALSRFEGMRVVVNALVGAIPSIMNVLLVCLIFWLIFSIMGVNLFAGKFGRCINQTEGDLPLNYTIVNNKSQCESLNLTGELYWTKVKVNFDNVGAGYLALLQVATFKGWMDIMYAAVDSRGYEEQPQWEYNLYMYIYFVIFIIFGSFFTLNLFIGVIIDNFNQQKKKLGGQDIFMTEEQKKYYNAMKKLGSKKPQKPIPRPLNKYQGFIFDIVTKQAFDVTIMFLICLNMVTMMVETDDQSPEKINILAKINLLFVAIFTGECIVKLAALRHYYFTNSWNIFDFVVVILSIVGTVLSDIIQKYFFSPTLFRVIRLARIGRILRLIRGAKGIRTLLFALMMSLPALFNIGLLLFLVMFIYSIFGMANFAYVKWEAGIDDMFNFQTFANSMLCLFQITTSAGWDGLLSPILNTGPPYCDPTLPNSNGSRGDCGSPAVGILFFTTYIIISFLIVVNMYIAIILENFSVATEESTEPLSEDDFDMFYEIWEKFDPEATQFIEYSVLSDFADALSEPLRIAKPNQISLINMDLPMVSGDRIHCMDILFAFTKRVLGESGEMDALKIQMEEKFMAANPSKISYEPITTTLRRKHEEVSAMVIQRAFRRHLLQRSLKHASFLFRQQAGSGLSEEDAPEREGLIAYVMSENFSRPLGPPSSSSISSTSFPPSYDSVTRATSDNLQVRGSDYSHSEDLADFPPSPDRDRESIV

[4] = read-out: Flux NaV1.5 IC50, Trex HEK293 cells, ANG2 dye, inactivated state

Structure (SMILES) | IC50 [1] | IC50 [2] | IC50 [3, 4] | IC50 [3]
O=S(=O)(Nc1cscn1)c1cc(Cl)c(OC2(c3ccccc3)CC2)cc1F [Example 221, 5-chloro-2-fluoro-4-(1-phenylcyclopropoxy)-N-(thiazol-4-yl)benzenesulfonamide] | 4.66 µM | 25.4 µM | 19 µM | –
C[C@H](Nc1ccc(S(=O)(=O)Nc2cscn2)c(F)c1Cl)c1c(F)cccc1F [Example 149, (S)-3-chloro-4-((1-(2,6-difluorophenyl)ethyl)amino)-2-fluoro-N-(thiazol-4-yl)benzenesulfonamide] | 0.78 µM | 3.36 µM | 6.39 µM | –
CC1(F)CN(Cc2cccc(F)c2CNc2cc(F)c(S(=O)(=O)Nc3ccon3)c(F)c2)C1 [Example 337, 2,6-difluoro-4-((2-fluoro-6-((3-fluoro-3-methylazetidin-1-yl)methyl)benzyl)amino)-N-(isoxazol-3-yl)benzenesulfonamide formate] | 0.266 µM | 14.3 µM | 30 µM | –
CC[C@H](Oc1cc(F)c(S(=O)(=O)Nc2cscn2)cc1Cl)c1ccccc1F [Example 338, (S)-5-chloro-2-fluoro-4-(1-(2-fluorophenyl)propoxy)-N-(thiazol-4-yl)benzenesulfonamide] | 1.62 µM | 5.71 µM | 2.65 µM | –
O=S(=O)(Nc1cscn1)c1c(F)cc(NCc2c(F)cccc2CN2CC3(C2)CC(F)(F)C3)cc1F [Example 160, 4-((2-((6,6-difluoro-2-azaspiro[3.3]heptan-2-yl)methyl)-6-fluorobenzyl)amino)-2,6-difluoro-N-(thiazol-4-yl)benzenesulfonamide formate] | 0.064 µM | 6.51 µM | – | 23 µM
C[C@H](Nc1cc(F)c(S(=O)(=O)Nc2cscn2)cc1Cl)c1cc(F)c(F)cc1F [Example 286, (S)-5-chloro-2-fluoro-N-(thiazol-4-yl)-4-((1-(2,4,5-trifluorophenyl)ethyl)amino)benzenesulfonamide] | 3.38 µM | 6.84 µM | 8.78 µM | –
O=S(=O)(Nc1cscn1)c1c(F)cc(NCc2ccccc2CCN2CC(F)(F)C2)cc1F [Example 319, 4-((2-(2-(3,3-difluoroazetidin-1-yl)ethyl)benzyl)amino)-2,6-difluoro-N-(thiazol-4-yl)benzenesulfonamide] | 2.31 µM | 18 µM | 20 µM | –
CC[C@H](Nc1cc(F)c(S(=O)(=O)Nc2nccs2)cc1Br)c1ccccc1 [Example 1, (S)-5-bromo-2-fluoro-4-((1-phenylpropyl)amino)-N-(thiazol-2-yl)benzenesulfonamide] | 0.12 µM | 0.784 µM | 8.92 µM | –
O=S(=O)(Nc1cscn1)c1cc(Cl)c(NCc2c(F)ccc(F)c2CN2CC3(CCOCC3)C2)cc1F [Example 282, 4-((2-((7-oxa-2-azaspiro[3.5]nonan-2-yl)methyl)-3,6-difluorobenzyl)amino)-5-chloro-2-fluoro-N-(thiazol-4-yl)benzenesulfonamide 2,2,2-trifluoroacetate] | 0.409 µM | 9.78 µM | 6.58 µM | –
C[C@H](Nc1c(Cl)cc(S(=O)(=O)Nc2nccs2)cc1Cl)c1ccccc1F [Example 21, (S)-3,5-dichloro-4-((1-(2-fluorophenyl)ethyl)amino)-N-(thiazol-2-yl)benzenesulfonamide] | 3.67 µM | 3.63 µM | 2.89 µM | –
O=S(=O)(Nc1nccs1)c1cc(Cl)c(N[C@H](CN2CC(F)(F)C2)c2ccccc2)cc1F [Example 69, (S)-5-chloro-4-((2-(3,3-difluoroazetidin-1-yl)-1-phenylethyl)amino)-2-fluoro-N-(thiazol-2-yl)benzenesulfonamide] | 1.59 µM | 3.03 µM | 7.66 µM | –
O=S(=O)(Nc1cscn1)c1cc(Cl)c(NCc2c(F)ccc3cc[nH]c23)cc1F [Example 298, 5-chloro-2-fluoro-4-(((6-fluoro-1H-indol-7-yl)methyl)amino)-N-(thiazol-4-yl)benzenesulfonamide] | 0.785 µM | 7.19 µM | 11.3 µM | –
C[C@H](Nc1cc(F)c(S(=O)(=O)Nc2cscn2)cc1Cl)c1cc(O)ccc1F [Example 234, (S)-5-chloro-2-fluoro-4-((1-(2-fluoro-5-hydroxyphenyl)ethyl)amino)-N-(thiazol-4-yl)benzenesulfonamide] | 0.669 µM | 4.62 µM | 8.67 µM | –
CN(C)Cc1ccccc1CNc1cc(F)c(S(=O)(=O)Nc2cscn2)c(F)c1 [Example 271, 4-((2-((dimethylamino)methyl)benzyl)amino)-2,6-difluoro-N-(thiazol-4-yl)benzenesulfonamide] | 0.448 µM | 30 µM | 30 µM | –
O=S(=O)(Nc1nccs1)c1cc(Cl)c(N[C@H](c2ccccc2F)C(F)(F)F)cc1F [Example 332, (R)-5-chloro-2-fluoro-N-(thiazol-2-yl)-4-((2,2,2-trifluoro-1-(2-fluorophenyl)ethyl)amino)benzenesulfonamide] | 0.275 µM | 0.831 µM | 7.24 µM | –
CN(Cc1c(F)ccc(F)c1CN1CCC1)c1cc(F)c(S(=O)(=O)Nc2cscn2)c(F)c1 [Example 284, 4-((2-(azetidin-1-ylmethyl)-3,6-difluorobenzyl)(methyl)amino)-2,6-difluoro-N-(thiazol-4-yl)benzenesulfonamide 2,2,2-trifluoroacetate] | 1.37 µM | 30 µM | 30 µM | –
CN(C)Cc1cccc(F)c1CNc1cc(F)c(S(=O)(=O)Nc2cscn2)c(F)c1 [Example 165, 4-((2-((dimethylamino)methyl)-6-fluorobenzyl)amino)-2,6-difluoro-N-(thiazol-4-yl)benzenesulfonamide formate] | 0.361 µM | 14.9 µM | – | 20.8 µM
O=S(=O)(Nc1cscn1)c1cc(Cl)c(NCc2c(F)cccc2CN2CCC(F)(F)CC2)cc1F [Example 251, 5-chloro-4-((2-((4,4-difluoropiperidin-1-yl)methyl)-6-fluorobenzyl)amino)-2-fluoro-N-(thiazol-4-yl)benzenesulfonamide] | 3.71 µM | 8.68 µM | 3.35 µM | –
Cc1cc(NCc2c(F)cccc2CN2CC(C)(C)C2)c(F)c(F)c1S(=O)(=O)Nc1cscn1 [Example 314, 4-((2-((3,3-dimethylazetidin-1-yl)methyl)-6-fluorobenzyl)amino)-2,3-difluoro-6-methyl-N-(thiazol-4-yl)benzenesulfonamide 2,2,2-trifluoroacetate] | 0.032 µM | 30 µM | 30 µM | –
C[C@H](Nc1ccc(S(=O)(=O)Nc2nccs2)cc1Cl)c1ccccn1 [Example 82, (S)-3-chloro-4-((1-(pyridin-2-yl)ethyl)amino)-N-(thiazol-2-yl)benzenesulfonamide] | 2.16 µM | 28.7 µM | 30 µM | –
O=S(=O)(Nc1cscn1)c1cc(Cl)c(OC2CCc3c2cccc3C(F)(F)F)cc1F (stereo not drawn) [Example 29, 5-chloro-2-fluoro-N-(thiazol-4-yl)-4-((4-(trifluoromethyl)-2,3-dihydro-1H-inden-1-yl)oxy)benzenesulfonamide] | 30 µM | 30 µM | 24.6 µM | –
